Values after ≈ are worked out from the molar mass of the structure shown.
What was measured:
Assay in all cases: minimal inhibitory concentration, agar dilution method
Assay type in all cases: cell-based
Escherichia coli NIHJ = system: Escherichia coli NIHJ
Excerpt: (§1) When determined according to the agar dilution method, the penicillins (I) afford the minimal inhibitory concentrations against test microorganisms as shown in Table 2.

[1] = system: Pseudomonas aeruginosa 104
Excerpt: as §1

[2] = system: Staphylococcus aureus 209P
Excerpt: as §1

Proteus miravilis GN2425 = system: Proteus miravilis GN2425
Proteus vulgaris HV19 = system: Proteus vulgaris HV19

Compound | MIC (Escherichia coli NIHJ) [µg/mL] | MIC [1] [µg/mL] | MIC [2] [µg/mL] | MIC (Proteus miravilis GN2425) [µg/mL] | MIC (Proteus vulgaris HV19) [µg/mL]
CC1(C)S[C@@H]2[C@H](NC(=O)[C@H](NC(=O)c3cnc4ccncc4c3O)c3ccc(O)cc3)C(=O)N2[C@H]1C(=O)O [Example 29] | 12.5 (≈ 23.3 µM) | 6.25 (≈ 11.6 µM) | 0.78 (≈ 1.45 µM) | 12.5 (≈ 23.3 µM) | 0.2 (≈ 0.372 µM)
CCOC(=O)Oc1ccc([C@@H](NC(=O)c2cnc3cc([N+](=O)[O-])ccc3c2O)C(=O)N[C@@H]2C(=O)N3[C@@H]2SC(C)(C)[C@@H]3C(=O)O)cc1 [Example 20] | 12.5 (≈ 19.1 µM) | 12.5 (≈ 19.1 µM) | 0.78 (≈ 1.19 µM) | 6.5 (≈ 9.94 µM) | –
CC1(C)S[C@@H]2[C@H](NC(=O)[C@H](NC(=O)c3cnc4ccc(N)nc4c3O)c3ccc(O)cc3)C(=O)N2[C@H]1C(=O)O [Example 24] | 1.56 (≈ 2.82 µM) | 3.13 (≈ 5.66 µM) | 1.56 (≈ 2.82 µM) | 3.13 (≈ 5.66 µM) | 0.05 (≈ 0.0905 µM)
CC1(C)S[C@@H]2[C@H](NC(=O)[C@H](NC(=O)c3cnc4ccccc4c3O)c3ccc(O)c(Cl)c3)C(=O)N2[C@H]1C(=O)O [Example 14] | 6.25 (≈ 10.9 µM) | 6.25 (≈ 10.9 µM) | 0.78 (≈ 1.37 µM) | 6.25 (≈ 10.9 µM) | –
COc1cnc2c(O)c(C(=O)N[C@@H](C(=O)N[C@@H]3C(=O)N4[C@@H]3SC(C)(C)[C@@H]4C(=O)O)c3ccc(O)cc3)cnc2n1 [Example 41] | 6.25 (≈ 11 µM) | 3.13 (≈ 5.51 µM) | 1.56 (≈ 2.74 µM) | 6.25 (≈ 11 µM) | 0.2 (≈ 0.352 µM)
CCOC(=O)Oc1ccc([C@@H](NC(=O)c2cnc3scnc3c2O)C(=O)N[C@@H]2C(=O)N3[C@@H]2SC(C)(C)[C@@H]3C(=O)O)cc1 [Example 42] | 3.13 (≈ 5.08 µM) | 6.25 (≈ 10.2 µM) | 0.78 (≈ 1.27 µM) | 6.25 (≈ 10.2 µM) | 0.2 (≈ 0.325 µM)
CC1(C)S[C@@H]2[C@H](NC(=O)[C@H](NC(=O)c3cc4ccccc4nc3O)c3ccc(O)cc3)C(=O)N2[C@H]1C(=O)O [Example 27] | 6.25 (≈ 11.6 µM) | 6.25 (≈ 11.6 µM) | 0.78 (≈ 1.45 µM) | 3.13 (≈ 5.83 µM) | 0.2 (≈ 0.373 µM)
CCOC(=O)Oc1c(C(=O)N[C@@H](C(=O)N[C@@H]2C(=O)N3[C@@H]2SC(C)(C)[C@@H]3C(=O)O)c2ccc(OC(=O)OCc3ccccc3)cc2)cnc2cccnc12 [Example 5, D-α-(4-ethoxycarbonyloxy-1,5-naphthyridine-3-carboxamido)-p-benzyloxycarbonyloxybenzylpenicillin] | 3.13 (≈ 4.21 µM) | 3.13 (≈ 4.21 µM) | 1.56 (≈ 2.1 µM) | 3.13 (≈ 4.21 µM) | 0.05 (≈ 0.0672 µM)
CCOC(=O)Oc1ccc([C@@H](NC(=O)c2cnc3ccccc3c2OC(=O)OCC)C(=O)N[C@@H]2C(=O)N3[C@@H]2SC(C)(C)[C@@H]3C(=O)O)cc1 [Example 12] | 3.13 (≈ 4.6 µM) | 6.25 (≈ 9.18 µM) | 0.78 (≈ 1.15 µM) | 3.13 (≈ 4.6 µM) | 0.2 (≈ 0.294 µM)
CCOC(=O)Oc1ccc([C@@H](NC(=O)c2cnc3cn[nH]c3c2O)C(=O)N[C@@H]2C(=O)N3[C@@H]2SC(C)(C)[C@@H]3C(=O)O)cc1 [Example 33] | 3.13 (≈ 5.23 µM) | 6.25 (≈ 10.4 µM) | 0.78 (≈ 1.3 µM) | 3.13 (≈ 5.23 µM) | 0.1 (≈ 0.167 µM)
CC1(C)S[C@@H]2[C@H](NC(=O)[C@H](NC(=O)c3nnc4ccccc4c3O)c3ccc(O)cc3)C(=O)N2[C@H]1C(=O)O [Example 8, D-α-(4-hydroxycinnoline-3-carboxamido)-p-hydroxybenzylpenicillin] | 12.5 (≈ 23.3 µM) | 12.5 (≈ 23.3 µM) | 0.78 (≈ 1.45 µM) | 12.5 (≈ 23.3 µM) | –
CC(C)(C)C(=O)Oc1ccc([C@@H](NC(=O)c2cnc3ccccc3c2O)C(=O)N[C@@H]2C(=O)N3[C@@H]2SC(C)(C)[C@@H]3C(=O)O)cc1 [Example 4, D-α-(4-hydroxyquinoline-3-carboxamido)-p-pivaloyloxybenzylpenicillin] | 6.25 (≈ 10.1 µM) | 6.25 (≈ 10.1 µM) | 0.39 (≈ 0.628 µM) | 6.25 (≈ 10.1 µM) | 0.2 (≈ 0.322 µM)
CC1(C)S[C@@H]2[C@H](NC(=O)[C@H](NC(=O)c3cnc4cccnc4c3O)c3ccc(O)c(Cl)c3)C(=O)N2[C@H]1C(=O)O [Example 32] | 3.13 (≈ 5.47 µM) | 3.13 (≈ 5.47 µM) | 0.78 (≈ 1.36 µM) | 6.25 (≈ 10.9 µM) | 0.05 (≈ 0.0874 µM)
CC1(C)S[C@@H]2[C@H](NC(=O)C(NC(=O)c3cnc4cccnc4c3O)c3ccc(O)cc3)C(=O)N2[C@H]1C(=O)O (mixture of isomers) [Example 2, DL-α-(4-hydroxy-1,5-naphthyridine-3-carboxamido)-p-hydroxybenzylpenicillin] | 3.13 | – | – | 3.13 | 0.025
CCOC(=O)Oc1ccc([C@@H](NC(=O)c2cnc3ccc(N(C)C)nc3c2O)C(=O)N[C@@H]2C(=O)N3[C@@H]2SC(C)(C)[C@@H]3C(=O)O)cc1Cl [Example 25] | 3.13 (≈ 4.56 µM) | 3.13 (≈ 4.56 µM) | 0.78 (≈ 1.14 µM) | 3.13 (≈ 4.56 µM) | 0.05 (≈ 0.0728 µM)
CCOC(=O)Oc1ccc([C@@H](NC(=O)c2cnc3c(OC)nc(OC)nc3c2O)C(=O)N[C@@H]2C(=O)N3[C@@H]2SC(C)(C)[C@@H]3C(=O)O)cc1 [Example 36] | 3.13 (≈ 4.67 µM) | 3.13 (≈ 4.67 µM) | 0.78 (≈ 1.16 µM) | 3.13 (≈ 4.67 µM) | 0.05 (≈ 0.0746 µM)
CC1(C)S[C@@H]2[C@H](NC(=O)[C@H](NC(=O)c3cnc4ccccc4c3O)c3cccc(O)c3)C(=O)N2[C@H]1C(=O)O [Example 13] | 6.25 (≈ 11.6 µM) | 6.25 (≈ 11.6 µM) | 0.78 (≈ 1.45 µM) | 3.13 (≈ 5.83 µM) | 0.2 (≈ 0.373 µM)
CC(C)COC(=O)Oc1ccc([C@@H](NC(=O)c2cnc3nc(N(C)C)ncc3c2O)C(=O)N[C@@H]2C(=O)N3[C@@H]2SC(C)(C)[C@@H]3C(=O)O)cc1 [Example 30] | 6.25 (≈ 9.17 µM) | 6.25 (≈ 9.17 µM) | 0.78 (≈ 1.14 µM) | 3.13 (≈ 4.59 µM) | 0.05 (≈ 0.0733 µM)

Continued by falling MIC (Proteus miravilis GN2425), values first:

MIC (Escherichia coli NIHJ) [µg/mL] | MIC [1] [µg/mL] | MIC [2] [µg/mL] | MIC (Proteus miravilis GN2425) [µg/mL] | MIC (Proteus vulgaris HV19) [µg/mL] | Compound
1.56 (≈ 2.83 µM) | 1.56 (≈ 2.83 µM) | 0.78 (≈ 1.41 µM) | 3.13 (≈ 5.67 µM) | 0.05 (≈ 0.0906 µM) | Cc1ccc2c(O)c(C(=O)N[C@@H](C(=O)N[C@@H]3C(=O)N4[C@@H]3SC(C)(C)[C@@H]4C(=O)O)c3ccc(O)cc3)cnc2n1 [Example 7, D-α-(4-hydroxy-7-methyl-1,8-naphthyridine-3-carboxamido)-p-hydroxybenzylpenicillin]
3.13 (≈ 5.23 µM) | 3.13 (≈ 5.23 µM) | 0.78 (≈ 1.3 µM) | 3.13 (≈ 5.23 µM) | 0.05 (≈ 0.0835 µM) | COc1nc(OC)c2c(O)c(C(=O)N[C@@H](C(=O)N[C@@H]3C(=O)N4[C@@H]3SC(C)(C)[C@@H]4C(=O)O)c3ccc(O)cc3)cnc2n1 [Example 28]
12.5 (≈ 20.7 µM) | 12.5 (≈ 20.7 µM) | – | 3.13 (≈ 5.18 µM) | – | CC1(C)S[C@@H]2[C@H](NC(=O)[C@H](NC(=O)c3cnc4cc(C(F)(F)F)ccc4c3O)c3ccc(O)cc3)C(=O)N2[C@H]1C(=O)O [Example 11]
3.13 (≈ 5.82 µM) | 3.13 (≈ 5.82 µM) | 1.56 (≈ 2.9 µM) | 3.13 (≈ 5.82 µM) | 0.05 (≈ 0.093 µM) | CC1(C)S[C@@H]2[C@H](NC(=O)C(NC(=O)c3cnc4cccnc4c3O)c3cccc(O)c3)C(=O)N2[C@H]1C(=O)O (stereo partly drawn) [Example 16]
– | 3.13 (≈ 4.68 µM) | 0.39 (≈ 0.583 µM) | 3.13 (≈ 4.68 µM) | 0.2 (≈ 0.299 µM) | CCOC(=O)Oc1ccc([C@@H](NC(=O)c2cnc3cc4c(cc3c2S)OCO4)C(=O)N[C@@H]2C(=O)N3[C@@H]2SC(C)(C)[C@@H]3C(=O)O)cc1 [Example 38]
1.56 (≈ 2.29 µM) | 1.56 (≈ 2.29 µM) | 0.78 (≈ 1.14 µM) | 1.56 (≈ 2.29 µM) | 0.025 (≈ 0.0367 µM) | CCOC(=O)Oc1ccc([C@@H](NC(=O)c2cnc3cccnc3c2OC(=O)OCC)C(=O)N[C@@H]2C(=O)N3[C@@H]2SC(C)(C)[C@@H]3C(=O)O)cc1 [Example 37]
1.56 (≈ 2.82 µM) | 1.56 (≈ 2.82 µM) | 0.78 (≈ 1.41 µM) | 1.56 (≈ 2.82 µM) | 0.025 (≈ 0.0452 µM) | CC1(C)S[C@@H]2[C@H](NC(=O)[C@H](NC(=O)c3cnc4cccnc4c3S)c3ccc(O)cc3)C(=O)N2[C@H]1C(=O)O [Example 43]
1.56 (≈ 2.9 µM) | 1.56 (≈ 2.9 µM) | 0.78 (≈ 1.45 µM) | 1.56 (≈ 2.9 µM) | 0.05 (≈ 0.0928 µM) | CC1(C)S[C@@H]2[C@H](NC(=O)[C@H](NC(=O)c3cnc4cncnc4c3O)c3ccc(O)cc3)C(=O)N2[C@H]1C(=O)O [Example 34]
1.56 (≈ 2.83 µM) | 1.56 (≈ 2.83 µM) | 0.78 (≈ 1.41 µM) | 1.56 (≈ 2.83 µM) | 0.05 (≈ 0.0906 µM) | Cc1ccc2ncc(C(=O)N[C@@H](C(=O)N[C@@H]3C(=O)N4[C@@H]3SC(C)(C)[C@@H]4C(=O)O)c3ccc(O)cc3)c(O)c2n1 [Example 18]
1.56 (≈ 2.75 µM) | 1.56 (≈ 2.75 µM) | 0.78 (≈ 1.38 µM) | 1.56 (≈ 2.75 µM) | 0.025 (≈ 0.0441 µM) | Cc1nc(C)c2ncc(C(=O)N[C@@H](C(=O)N[C@@H]3C(=O)N4[C@@H]3SC(C)(C)[C@@H]4C(=O)O)c3ccc(O)cc3)c(O)c2n1 [Example 35]
1.56 (≈ 2.82 µM) | 3.13 (≈ 5.65 µM) | 0.78 (≈ 1.41 µM) | 1.56 (≈ 2.82 µM) | 0.05 (≈ 0.0903 µM) | CC1(C)S[C@@H]2[C@H](NC(=O)[C@H](NC(=O)c3cnc4ccc(O)nc4c3O)c3ccc(O)cc3)C(=O)N2[C@H]1C(=O)O [Example 22]
1.56 | 3.13 | 1.56 | 1.56 | 0.1 | CCOC(=O)Oc1ccc(C(NC(=O)c2cnc3ccc(N(C)C)nc3c2O)C(=O)N[C@@H]2C(=O)N3[C@@H]2SC(C)(C)[C@@H]3C(=O)O)cc1 (mixture of isomers) [Example 3, DL-α-(4-hydroxy-6-dimethylamino-1,5-naphthyridine-3-carboxamido)-p-ethoxycarbonyloxybenzylpenicillin]
1.56 (≈ 2.9 µM) | 1.56 (≈ 2.9 µM) | 0.78 (≈ 1.45 µM) | 1.56 (≈ 2.9 µM) | 0.025 (≈ 0.0465 µM) | CC1(C)S[C@@H]2[C@H](NC(=O)[C@H](NC(=O)c3cnc4cccnc4c3O)c3ccc(O)cc3)C(=O)N2[C@H]1C(=O)O [Example 1, D-α-(4-hydroxy-1,5-naphthyridine-3-carboxamido)-p-hydroxybenzylpenicillin]
– | – | 0.39 (≈ 0.606 µM) | 0.78 (≈ 1.21 µM) | – | CCOC(=O)Oc1ccc([C@@H](NC(=O)c2cnc3cc(Cl)ccc3c2O)C(=O)N[C@@H]2C(=O)N3[C@@H]2SC(C)(C)[C@@H]3C(=O)O)cc1 [Example 10]
12.5 (≈ 33 µM) | 50 to 100 (≈ 132 to 264 µM) | 0.78 (≈ 2.06 µM) | 0.78 (≈ 2.06 µM) | – | CC1(C)S[C@@H]2[C@H](NC(=O)C(C(=O)O)c3ccccc3)C(=O)N2[C@H]1C(=O)O (stereo partly drawn) [Carbenicillin, reference compound]
